In ChEMBL document CHEMBL4828769, “Discovery of AS-0141, a Potent and Selective Inhibitor of CDC7 Kinase for the Treatment of Solid Cancers” (J Med Chem, 2021):

Tests used:
[1] = target: T1, Cell division cycle 7-related protein kinase (Homo sapiens, UniProt O00311); experiment: Reversible inhibition of human CDC7 assessed as off-rate preincubated for 50 mins followed by substrate addition in presence of ATP by rapid dilution assay
Target sequence in this assay (O00311 whole entry, looked up): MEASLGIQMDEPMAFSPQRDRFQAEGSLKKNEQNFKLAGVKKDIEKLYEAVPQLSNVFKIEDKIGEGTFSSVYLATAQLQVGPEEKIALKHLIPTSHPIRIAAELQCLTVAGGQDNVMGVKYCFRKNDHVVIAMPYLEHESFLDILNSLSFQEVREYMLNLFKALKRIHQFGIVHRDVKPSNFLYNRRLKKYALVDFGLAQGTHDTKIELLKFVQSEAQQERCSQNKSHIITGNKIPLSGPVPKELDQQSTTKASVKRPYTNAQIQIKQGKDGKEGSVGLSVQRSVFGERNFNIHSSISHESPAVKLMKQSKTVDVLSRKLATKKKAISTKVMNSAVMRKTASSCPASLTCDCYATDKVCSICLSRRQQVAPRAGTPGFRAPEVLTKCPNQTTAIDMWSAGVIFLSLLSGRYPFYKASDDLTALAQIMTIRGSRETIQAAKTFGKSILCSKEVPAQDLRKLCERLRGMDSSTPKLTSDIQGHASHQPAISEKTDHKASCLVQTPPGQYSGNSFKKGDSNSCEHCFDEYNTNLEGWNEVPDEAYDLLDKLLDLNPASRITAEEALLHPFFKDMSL

[2] = Inhibition of human CDC7/ASK using FITC-labelled MCM2 substrate in presence of 5 uM of ATP
[3] = Inhibition of human CDC7/ASK using FITC-labelled MCM2 substrate in presence of 1 mM of ATP
[4] = Inhibition of human CDC7/ASK using FITC-labelled MCM2 substrate preincubated for 30 mins followed by substrate addition and measured after 5 hrs in presence of 1 mM of ATP
[5] = Metabolic stability in human liver microsomes assessed as parent compound remaining after 30 mins; assay type: ADME, Microsome; conditions: liver microsomes, read-out: Stability
[6] = Metabolic stability in mouse liver microsomes assessed as parent compound remaining after 30 mins; assay type: ADME, Microsome; conditions: liver microsomes, read-out: Stability
[7] = Protein binding in human plasma assessed as unbound fraction; assay type: ADME, cell-free
[8] = target: T2, Glycogen synthase kinase-3 alpha (Homo sapiens, UniProt P49840); experiment: Inhibition of GSK3alpha (unknown origin) at 0.1 uM in presence of 1 mM ATP relative to control
Target sequence in this assay (P49840 2-483 limits assumed): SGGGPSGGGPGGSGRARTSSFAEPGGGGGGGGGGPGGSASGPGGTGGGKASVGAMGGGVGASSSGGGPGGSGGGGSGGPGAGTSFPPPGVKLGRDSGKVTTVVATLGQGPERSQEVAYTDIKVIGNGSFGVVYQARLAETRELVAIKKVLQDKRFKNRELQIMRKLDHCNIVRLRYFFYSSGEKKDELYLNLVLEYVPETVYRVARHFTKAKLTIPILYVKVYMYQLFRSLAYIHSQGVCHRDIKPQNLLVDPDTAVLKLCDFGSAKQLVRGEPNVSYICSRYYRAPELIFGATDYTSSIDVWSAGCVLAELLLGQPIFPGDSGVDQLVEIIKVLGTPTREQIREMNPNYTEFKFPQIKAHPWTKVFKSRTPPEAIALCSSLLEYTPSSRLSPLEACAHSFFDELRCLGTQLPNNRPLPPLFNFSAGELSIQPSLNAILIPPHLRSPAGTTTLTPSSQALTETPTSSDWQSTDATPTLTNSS

[9] = target: Dual specificity protein kinase CLK1 (Homo sapiens, UniProt P49759); experiment: Inhibition of CLK1 (unknown origin) at 0.1 uM in presence of 1 mM ATP relative to control
Sequence of Dual specificity protein kinase CLK1 (P49759 whole entry, looked up): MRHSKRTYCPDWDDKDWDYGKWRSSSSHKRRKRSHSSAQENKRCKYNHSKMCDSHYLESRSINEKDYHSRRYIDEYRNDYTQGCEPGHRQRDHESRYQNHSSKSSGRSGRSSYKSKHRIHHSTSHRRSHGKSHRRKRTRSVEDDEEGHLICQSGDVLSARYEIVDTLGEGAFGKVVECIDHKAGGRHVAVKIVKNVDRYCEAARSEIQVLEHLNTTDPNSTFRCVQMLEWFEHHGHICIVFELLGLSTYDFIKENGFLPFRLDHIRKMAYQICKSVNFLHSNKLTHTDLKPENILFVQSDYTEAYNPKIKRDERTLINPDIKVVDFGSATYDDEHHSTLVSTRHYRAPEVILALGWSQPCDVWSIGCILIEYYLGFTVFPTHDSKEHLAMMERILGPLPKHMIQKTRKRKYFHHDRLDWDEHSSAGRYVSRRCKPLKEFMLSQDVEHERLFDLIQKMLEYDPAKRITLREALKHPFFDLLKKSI

[10] = organism: Homo sapiens; experiment: Selectivity index, ratio of IC50 for inhibition of human CDC7 in presence of 1 mM ATP without preincubation to IC50 for inhibition of human CDC7 using FITC-labelled MCM2 substrate preincubated for 30 mins followed by substrate addition and measured after 5 hrs in presence of 1 mM ATP
[11] = target: T3, Serine/threonine-protein kinase pim-1 (Homo sapiens, UniProt P11309); experiment: Inhibition of PIM1 (unknown origin) in presence of 1 mM ATP without preincubation
T3 sequence (P11309 whole entry): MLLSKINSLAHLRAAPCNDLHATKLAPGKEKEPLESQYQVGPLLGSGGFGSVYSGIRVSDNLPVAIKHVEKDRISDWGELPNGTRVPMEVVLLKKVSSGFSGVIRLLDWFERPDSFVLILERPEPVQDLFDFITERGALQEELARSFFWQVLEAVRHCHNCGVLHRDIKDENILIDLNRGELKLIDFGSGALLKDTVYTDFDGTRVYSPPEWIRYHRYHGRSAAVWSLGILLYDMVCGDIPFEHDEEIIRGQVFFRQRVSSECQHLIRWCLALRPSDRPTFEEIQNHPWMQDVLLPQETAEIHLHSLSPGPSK

[12] = target: T3, Serine/threonine-protein kinase pim-1; experiment: Inhibition of PIM1 (unknown origin) in presence of 1 mM ATP with preincubation
[13] = organism: Homo sapiens; experiment: Selectivity index, ratio of IC50 for PIM1 (unknown origin) in presence of 1 mM ATP without preincubation to IC50 for PIM1 (unknown origin) in presence of 1 mM ATP with preincubation
[14] = organism: Homo sapiens; experiment: Selectivity index, ratio of IC50 for CLK1 (unknown origin) in presence of 1 mM ATP without preincubation to IC50 for CLK1 (unknown origin) in presence of 1 mM ATP with preincubation
[15] = target: Dual specificity protein kinase CLK2 (Homo sapiens, UniProt P49760); experiment: Inhibition of CLK2 (unknown origin) in presence of 1 mM ATP with preincubation
Sequence of Dual specificity protein kinase CLK2 (P49760 whole entry): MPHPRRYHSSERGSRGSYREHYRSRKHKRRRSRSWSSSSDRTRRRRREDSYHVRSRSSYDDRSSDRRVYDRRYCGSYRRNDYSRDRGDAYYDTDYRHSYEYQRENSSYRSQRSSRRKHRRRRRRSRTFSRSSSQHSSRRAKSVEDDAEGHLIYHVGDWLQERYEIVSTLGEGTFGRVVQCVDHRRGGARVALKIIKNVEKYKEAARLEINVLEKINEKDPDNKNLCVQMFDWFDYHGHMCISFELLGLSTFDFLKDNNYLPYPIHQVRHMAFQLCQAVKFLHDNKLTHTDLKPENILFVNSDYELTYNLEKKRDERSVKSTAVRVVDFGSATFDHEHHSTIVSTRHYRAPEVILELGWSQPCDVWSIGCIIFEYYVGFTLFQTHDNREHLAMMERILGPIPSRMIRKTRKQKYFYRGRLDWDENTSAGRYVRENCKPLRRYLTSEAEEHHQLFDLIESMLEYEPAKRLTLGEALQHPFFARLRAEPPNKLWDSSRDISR

[16] = organism: Homo sapiens; experiment: Selectivity index, ratio of IC50 for CLK2 (unknown origin) in presence of 1 mM ATP without preincubation to IC50 for CLK2 (unknown origin) in presence of 1 mM ATP with preincubation
[17] = target: T2, Glycogen synthase kinase-3 alpha; experiment: Inhibition of GSK3alpha (unknown origin) in presence of 1 mM ATP without preincubation
Target sequence in this assay (P49840 whole entry): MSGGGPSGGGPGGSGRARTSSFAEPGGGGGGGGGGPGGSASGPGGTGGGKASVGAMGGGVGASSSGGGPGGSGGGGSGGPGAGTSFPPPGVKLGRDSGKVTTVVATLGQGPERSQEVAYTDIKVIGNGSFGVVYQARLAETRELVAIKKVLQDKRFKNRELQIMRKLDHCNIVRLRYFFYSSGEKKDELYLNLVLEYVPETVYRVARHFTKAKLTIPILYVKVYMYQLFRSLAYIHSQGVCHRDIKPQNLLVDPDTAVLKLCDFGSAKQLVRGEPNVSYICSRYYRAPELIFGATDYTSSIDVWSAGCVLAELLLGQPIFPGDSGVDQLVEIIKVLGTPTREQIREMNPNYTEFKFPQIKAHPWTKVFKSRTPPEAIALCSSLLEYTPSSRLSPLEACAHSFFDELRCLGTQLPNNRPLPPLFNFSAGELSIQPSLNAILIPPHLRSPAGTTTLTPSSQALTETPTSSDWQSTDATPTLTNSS

[18] = organism: Homo sapiens; experiment: Selectivity index, ratio of IC50 for GSK3alpha (unknown origin) in presence of 1 mM ATP without preincubation to IC50 for GSK3alpha (unknown origin) in presence of 1 mM ATP with preincubation
[19] = target: T1, Cell division cycle 7-related protein kinase; experiment: Inhibition of CDC7 in human SW-620 cells assessed as reduction in phosphorylation of MCM2 at Ser53 residue incubated for 48 hrs by Western blot analysis; assay type: cell-based
[20] = target: T1, Cell division cycle 7-related protein kinase; experiment: Inhibition of CDC7 in human SW-620 cells assessed as reduction in phosphorylation of MCM2 at Ser40 residue incubated for 48 hrs by Western blot analysis; assay type: cell-based
[21] = test system: SW-620; experiment: Induction of apoptosis in human SW-620 cells assessed as increase in cleaved PARP level incubated for 48 hrs by Western blot analysis; assay type: functional, cell-based; conditions: dose 0.03-1 µM
[22] = Half life in mouse at 1 mg/kg, iv; assay type: ADME, organism-based; conditions: in vivo
[23] = Half life in mouse at 10 mg/kg, po; assay type: ADME, organism-based; conditions: in vivo
[24] = Half life in rat at 2 mg/kg, iv; assay type: ADME, organism-based; conditions: in vivo
[25] = Half life in rat at 10 mg/kg, po; assay type: ADME, organism-based; conditions: in vivo
[26] = Half life in dog at 1 mg/kg, iv; assay type: ADME, organism-based, Canis lupus familiaris; conditions: in vivo
[27] = Half life in dog at 2 mg/kg, po; assay type: ADME, organism-based, Canis lupus familiaris; conditions: in vivo
[28] = Tmax in mouse at 10 mg/kg, po; assay type: ADME, organism-based; conditions: in vivo
[29] = Tmax in rat at 10 mg/kg, po; assay type: ADME, organism-based; conditions: in vivo
[30] = Cmax in mouse at 1 mg/kg, iv; assay type: ADME, organism-based; parameters: route intravenous, dose 1 mg/kg; conditions: in vivo
[31] = Cmax in mouse at 10 mg/kg, po; assay type: ADME, organism-based; parameters: route oral, dose 10 mg/kg; conditions: in vivo
[32] = Cmax in rat at 2 mg/kg, iv; assay type: ADME, organism-based; parameters: route intravenous, dose 2 mg/kg; conditions: in vivo
[33] = Cmax in rat at 10 mg/kg, po; assay type: ADME, organism-based; parameters: route oral, dose 10 mg/kg; conditions: in vivo
[34] = Cmax in dog at 2 mg/kg, po; assay type: ADME, organism-based, Canis lupus familiaris; parameters: route oral, dose 2 mg/kg; conditions: in vivo
[35] = AUC(0 to infinity) in mouse at 1 mg/kg, iv; assay type: ADME, organism-based; parameters: route intravenous, time infinity, dose 1 mg/kg; conditions: in vivo
[36] = AUC(0 to infinity) in mouse at 10 mg/kg, po; assay type: ADME, organism-based; parameters: time infinity, route oral, dose 10 mg/kg; conditions: in vivo
[37] = AUC(0 to infinity) in rat at 10 mg/kg, po; assay type: ADME, organism-based; parameters: time infinity, route oral, dose 10 mg/kg; conditions: in vivo
[38] = AUC(0 to infinity) in dog at 1 mg/kg, iv; assay type: ADME, organism-based, Canis lupus familiaris; parameters: route intravenous, time infinity, dose 1 mg/kg; conditions: in vivo
[39] = AUC(0 to infinity) in dog at 2 mg/kg, po; assay type: ADME, organism-based, Canis lupus familiaris; parameters: route oral, time infinity, dose 2 mg/kg; conditions: in vivo
[40] = Volume of distribution in rat at 2 mg/kg, iv; assay type: ADME, organism-based; conditions: in vivo
[41] = Clearance in rat at 2 mg/kg, iv; assay type: ADME, organism-based; conditions: in vivo
[42] = Clearance in dog at 1 mg/kg, iv; assay type: ADME, organism-based, Canis lupus familiaris; conditions: in vivo
[43] = MRT in rat at 2 mg/kg, iv; assay type: ADME, organism-based; conditions: in vivo
[44] = MRT in dog at 1 mg/kg, iv; assay type: ADME, organism-based, Canis lupus familiaris; conditions: in vivo
[45] = Oral bioavailability in mouse at 10 mg/kg; assay type: ADME, organism-based; conditions: in vivo
[46] = Oral bioavailability in rat at 10 mg/kg; assay type: ADME, organism-based; conditions: in vivo
[47] = test system: SW-620; experiment: Antitumor activity against human SW-620 cells xenografted in BALB/c nude mouse assessed as tumor growth inhibition at 120 mg/kg, po administered daily for 21 days; assay type: functional; conditions: SW-620, po, 504 h, time 21 day, read-out: TGI
[48] = test system: SW-620; experiment: Antitumor activity against human SW-620 cells xenografted in BALB/c nude mouse assessed as tumor growth inhibition at 60 mg/kg, po administered as 4 days on and 2 days off schedule for 21 days; assay type: functional; conditions: SW-620, po, 504 h, time 21 day, read-out: TGI
[49] = In vivo inhibition of CDC7 in human SW-620 cells xenografted in BALB/c nude mouse assessed as reduction in phosphorylation of MCM2 at Ser53 residue at 120 mg/kg, po measured after 8 hrs; assay type: functional; conditions: SW-620, po
[50] = In vivo inhibition of CDC7 in human SW-620 cells xenografted in BALB/c nude mouse assessed as reduction in phosphorylation of MCM2 at Ser53 residue at 120 mg/kg, po measured after 24 hrs; assay type: functional; conditions: SW-620, po

Work on `CCOC(=O)C1=C(NN2CCN(CC(F)(F)F)CC2)O/C(=C\c2c[nH]c3ncccc23)C1=O` [MONZOSERTIB] yielded a T1/2 [1] of 3.58 h, an IC50 [2] of 8.2 nM and an IC50 [3] of 503 nM. It also gave an IC50 [4] of 2.4 nM, a remaining at 0.5 h [5] of 89% and a remaining at 0.5 h [6] of 18.7%. For the same molecule, the fraction unbound [7] was 0.088, the inhibition [8] was over 30% and the inhibition [9] was over 30%. The Ratio IC50 [10] was 210, the IC50 [11] was 30 nM and the IC50 [12] was 34 nM. The Ratio IC50 [13] was 0.9, the Ratio IC50 [14] was 1 and the IC50 [15] was 227 nM. For the same molecule, the Ratio IC50 [16] was 1.2, the IC50 [17] was 189 nM and the Ratio IC50 [18] was 0.8. The IC50 [19] was 53 nM, the inhibition ([19]; dose 0.03-1 µM) was “Dose-Dependent Effect” and the IC50 [20] was 36 nM. For the same molecule, the inhibition ([20]; dose 0.03-1 µM) was “Dose-Dependent Effect”, the Activity [21] was “Dose-Dependent Effect” and the half-life [22] was 0.32 h. It also gave a half-life [23] of 1.45 h, a half-life [24] of 3.01 h and a half-life [25] of 6.1 h. It also gave a half-life [26] of 4.8 h, a half-life [27] of 4.19 h and a Tmax [28] of 4.98 min. It also gave a Tmax [29] of 1 h, a Cmax [30] of 408 ng/mL and a Cmax [31] of 285 ng/mL. For the same molecule, the Cmax [32] was 1210 ng/mL, the Cmax [33] was 426 ng/mL and the Cmax [34] was 96.1 ng/mL. The AUC(0-inf) [35] was 149 ng·h/mL, the AUC(0-inf) [36] was 454 ng·h/mL and the AUC(0-inf) [37] was 2410 ng·h/mL. For the same molecule, the AUC(0-inf) [38] was 1250 ng·h/mL, the AUC(0-inf) [39] was 834 ng·h/mL and the Vd [40] was 3.24 L/kg. The clearance [41] was 37.7 mL/min/kg, the clearance [42] was 13.5 mL/min/kg and the MRT [43] was 1.45 h. It also gave an MRT [44] of 5.26 h, a bioavailability [45] of 30.6% and a bioavailability [46] of 54.4%. It also gave an inhibition in vivo at 120 mg/kg [47] of 88%, an inhibition in vivo at 60 mg/kg [48] of 83% and an inhibition in vivo at 120 mg/kg [49] of 83%. The inhibition in vivo at 120 mg/kg [50] was 36%.
